Values quoted from earlier work as cited in US20050009776A1, “Method of treating atrial fibrillation or atrial flutter” (Aderis Pharmaceuticals, Inc., priority 2003, published 2005).

Settings: cited from earlier work

Nc1ncnc2c1ncn2[C@@H]1O[C@H](CO)[C@@H](O)[C@H]1O [adenosine]
half-life: 10 s
